Test results taken from PubChem BioAssay AID651836 (Sanford-Burnham Center for Chemical Genomics, 2012).
Values joined by “and” are separate entries in the source; they are usually repeats but may differ in a detail not shown here. Equal entries are not always repeated. Active and inactive are the calls of the source. The rule behind the calls is not given here.

System: Gli-SUFU luciferase reporter cells, luminescence
Test: Gli-SUFU pathway antagonists, SAR follow-up, cell-based, luciferase luminescence, set 1 (AID 651836)

Row | Compound | IC50
1 | O=C(Nc1cc(N2CCNCC2)ncn1)c1ccccc1 | > 11.7 µM (inactive)
2 | O=C(Nc1cc(N2CCCCC2)ncn1)c1ccc2ccccc2c1 | > 11.7 µM (inactive)
3 | O=C(Nc1cc(N2CCCCC2)ncn1)c1ccccc1 | 0.0566 µM and 0.0242 µM
4 | O=C(Nc1cc(N2CCCCC2)ncn1)c1cccc(F)c1 | > 11.7 µM (inactive)
5 | O=C(Nc1cc(N2CCCCC2)ncn1)c1cccc2ccccc12 | > 11.7 µM (inactive)
6 | CN(C)c1cc(NC(=O)c2ccccc2F)ncn1 | > 11.7 µM (inactive)
7 | COc1cc(OC)cc(C(=O)Nc2cc(N3CCCCC3)ncn2)c1 | > 11.7 µM (inactive)
8 | CC(C)(C)Nc1cc(NC(=O)c2ccccc2)ncn1 | > 11.7 µM (inactive)
9 | Cc1ccc(C(=O)Nc2cc(N3CCCCC3)ncn2)cc1 | > 11.7 µM (inactive)
10 | O=C(Nc1cc(N2CCOCC2)ncn1)c1ccccc1 | > 11.7 µM (inactive)
11 | CCC(C)Nc1cc(NC(=O)c2ccccc2)ncn1 (stereo unspecified) | > 11.7 µM (inactive)
12 | O=C(Nc1cc(N2CCCC2)ncn1)c1cccc(F)c1 | > 11.7 µM (inactive)
13 | CC(C)CNc1cc(NC(=O)c2cccc(F)c2)ncn1 | > 11.7 µM (inactive)
14 | N#Cc1cccc(C(=O)Nc2cc(N3CCCCC3)ncn2)c1 | > 11.7 µM (inactive)
15 | O=C(Nc1cc(N2CCCCC2)ncn1)c1ccc(C(F)(F)F)cc1 | > 11.7 µM (inactive)
16 | Cc1nc(NC(=O)c2ccccc2)cc(N2CCCCC2)n1 | > 11.7 µM (inactive)
17 | COc1cc(OC)cc(C(=O)Nc2cc(N(C)C)ncn2)c1 | > 11.7 µM (inactive)
18 | O=C(Nc1cc(N2CCCCC2)ncn1)c1ccco1 | > 11.7 µM (inactive)
19 | O=C(Nc1cc(N2CCCCC2)ncn1)c1ccc(Br)o1 | > 11.7 µM (inactive)

Row | Compound | IC50
20 | O=C(Nc1cc(N2CCSCC2)ncn1)c1ccccc1 | > 11.7 µM (inactive)
21 | CN(C)c1cc(NC(=O)c2cccc(C#N)c2)ncn1 | > 11.7 µM (inactive)
22 | COc1cc(OC)cc(C(=O)Nc2cc(N3CCCC3)ncn2)c1 | > 11.7 µM (inactive)
23 | COc1cccc(C(=O)Nc2cc(N3CCCCC3)ncn2)c1 | > 11.7 µM (inactive)
24 | O=C(Nc1cc(N2CCCCC2)ncn1)c1cccs1 | > 11.7 µM (inactive)
25 | CCN(CC)c1cc(NC(=O)c2ccccc2)ncn1 | > 11.7 µM (inactive)
26 | CN(C)c1cc(NC(=O)c2ccccc2)ncn1 | > 11.7 µM (inactive)
27 | CN1CCN(c2cc(NC(=O)c3ccccc3)ncn2)CC1 | > 11.7 µM (inactive)
28 | CCN(CC)c1cc(NC(=O)c2cccc(C#N)c2)ncn1 | > 11.7 µM (inactive)
29 | O=C(Nc1cc(N2CCCCCC2)ncn1)c1ccccc1 | 0.0741 µM
30 | CC1CCN(c2cc(NC(=O)c3ccccc3)ncn2)CC1 | 0.037 µM
31 | CN(C)c1cc(NC(=O)c2cccc(F)c2)ncn1 | > 11.7 µM (inactive)
32 | O=C(Nc1cc(N2CCCC2)ncn1)c1ccccc1 | > 11.7 µM (inactive)
33 | O=C(Nc1cc(N2CCCCC2)ncn1)c1cc2ccccc2s1 | > 11.7 µM (inactive)
34 | O=C(Nc1cc(N2CCCCC2)ncn1)c1ccccc1F | 0.176 µM
35 | CCN(CC)c1cc(NC(=O)c2ccc(Br)o2)ncn1 | > 11.7 µM (inactive)
36 | O=C(Nc1cc(N2CCCCC2)ncn1)c1ccc(Cl)cc1 | > 11.7 µM (inactive)
37 | CC(C)Nc1cc(NC(=O)c2ccccc2)ncn1 | > 11.7 µM (inactive)
38 | CC(C)CNc1cc(NC(=O)c2ccccc2)ncn1 | > 11.7 µM (inactive)

Row | Compound | IC50
39 | CC(C)(C)OC(=O)N1CCN(c2cc(NC(=O)c3ccccc3)ncn2)CC1 | > 11.7 µM (inactive)
40 | O=C(Nc1cc(N2CCCCC2)ncn1)c1ccsc1 | > 11.7 µM (inactive)
41 | Cc1nc(NC(=O)c2ccccc2)cc(N2CCCC2)n1 | > 11.7 µM (inactive)
42 | O=C(Nc1cc(N2CCCC2)ncn1)c1ccccc1F | > 11.7 µM (inactive)
43 | COc1cc(OC)cc(C(=O)Nc2cc(Nc3cccc(Cl)c3)ncn2)c1 | > 11.7 µM (inactive)
44 | CCCCN(C)c1cc(NC(=O)c2ccccc2)ncn1 | > 11.7 µM (inactive)
45 | Cc1nc(NC(=O)c2ccccc2)cc(N(C)C)n1 | > 11.7 µM (inactive)
46 | O=C(Nc1cc(N2CCCCC2)ncn1)c1ccccc1C(F)(F)F | > 11.7 µM (inactive)
47 | CCN(CC)c1cc(NC(=O)c2cccc(F)c2)ncn1 | > 11.7 µM (inactive)
48 | CCCCNc1cc(NC(=O)c2ccccc2)ncn1 | > 11.7 µM (inactive)
49 | CCN(CC)c1cc(NC(=O)c2ccccc2F)ncn1 | 0.556 µM
50 | CCN(CC)c1cc(NC(=O)c2ccccc2)nc(C)n1 | > 11.7 µM (inactive)
51 | N#Cc1ccc(C(=O)Nc2cc(N3CCCCC3)ncn2)cc1 | > 11.7 µM (inactive)
52 | O=C(Nc1cc(NCC2CCCO2)ncn1)c1ccccc1 (stereo unspecified) | > 11.7 µM (inactive)
53 | CCN(CC)c1cc(NC(=O)c2cc(OC)cc(OC)c2)ncn1 | > 11.7 µM (inactive)
54 | CC1CCCCN1c1cc(NC(=O)c2ccccc2)ncn1 (stereo unspecified) | > 11.7 µM (inactive)
55 | CCOc1ccc(S(=O)(=O)NCc2ccncc2)cc1NC(=O)c1ccccc1 | 0.636 µM
56 | CCOc1ccc(-c2nc(CSCC(=O)NC3CC3)c(C)o2)cc1 | 0.0378 µM
